Data on 38 molecules can be found in the SangsterLogP compilation.

Molecule `COc1ccccc1Cl` displayed a logP of 2.72.
With `COc1cc(Cl)c(Cl)c(Cl)c1Br` the figure was 4.97; with `COc1c(Br)cc(Br)c(Cl)c1Br`, 5.29; with `COc1cc(Cl)cc(Cl)c1Cl`, 4.05.
With `COc1c(Cl)c(Cl)c(Cl)c(Cl)c1Cl` the figure was 5.16; with `COc1ccc(Cl)c(Cl)c1`, 3.55.
Molecule `COc1c(Cl)cc(Br)c(Cl)c1Cl` showed a logP of 4.66.
As for `COc1cc(Cl)c(Br)c(Cl)c1Br`, the lipophilicity (logP) was determined as 5.29.
With `COc1cc(Cl)ccc1Cl` the figure was 3.27.
Under `COc1c(Br)cc(Br)c(Cl)c1Cl` stands 4.97; under `COc1c(Br)c(Br)c(Br)c(Br)c1Br`, 5.43.
Under `COc1ccc(Br)cc1Cl` stands 3.77; under `COc1c(Cl)cc(Cl)cc1Br`, 4; under `COc1cccc(Cl)c1Cl`, 3.3.
Molecule `COc1c(Br)ccc(Cl)c1Cl` had a logP of 4.47.
With `COc1cc(Cl)c(Cl)cc1Cl` the figure was 3.95; with `COc1cc(Cl)cc(Cl)c1Br`, 4.39.
`COc1cccc(Br)c1` gave a log partition coefficient (logP) of 3.23.
With `COc1c(Cl)cc(Br)cc1Cl` the figure was 4.02; with `COc1c(Br)cc(Cl)c(Cl)c1Cl`, 4.64.
With `COc1ccc(Cl)cc1Br` the figure was 3.59; with `COc1cc(Br)c(Cl)cc1Cl`, 4.47.
Under `COc1c(Cl)cccc1Br` stands 3.44.
For the molecule `COc1c(Cl)c(Cl)c(Br)c(Cl)c1Cl`, the logP is 5.26.
Under `COc1c(Br)cccc1Br` stands 3.42; under `COc1ccccc1Br`, 2.87; under `COc1ccc(Br)cc1Br`, 3.75.
Under `COc1cc(Cl)c(Cl)c(Cl)c1Cl` stands 4.57; under `COc1c(Cl)ccc(Cl)c1Cl`, 3.76.
Under `COc1ccc(Br)cc1` stands 3.15; under `COc1cc(Cl)c(Br)c(Cl)c1`, 4.39; under `COc1c(Br)cc(Cl)cc1Br`, 4.33.
Turning to `COc1ccc(Cl)cc1Cl`, the logP is 3.46.
As for `COc1ccc(Br)c(Cl)c1Cl`, the logP was found to be 4.47.
Under `COc1c(Cl)c(Cl)cc(Br)c1Cl` stands 4.66; under `COc1c(Br)c(Cl)c(Cl)c(Cl)c1Br`, 5.55; under `COc1c(Cl)cccc1Cl`, 3.19.
Under `COc1c(Cl)c(Cl)cc(Br)c1Br` stands 5.29.

One may read the logP as a log measure of how a compound divides between an organic and an aqueous phase.
